These molecules were tested against human Nav1.7 (Homo sapiens (Human), UniProt Q15858) (assay: Nav 1.7 In Vitro PX Assay (PatchXpress whole cell voltage clamp)). Conditions: in-vitro Nav 1.7 PX data.
human Nav1.7, sequence (Q15858 whole entry): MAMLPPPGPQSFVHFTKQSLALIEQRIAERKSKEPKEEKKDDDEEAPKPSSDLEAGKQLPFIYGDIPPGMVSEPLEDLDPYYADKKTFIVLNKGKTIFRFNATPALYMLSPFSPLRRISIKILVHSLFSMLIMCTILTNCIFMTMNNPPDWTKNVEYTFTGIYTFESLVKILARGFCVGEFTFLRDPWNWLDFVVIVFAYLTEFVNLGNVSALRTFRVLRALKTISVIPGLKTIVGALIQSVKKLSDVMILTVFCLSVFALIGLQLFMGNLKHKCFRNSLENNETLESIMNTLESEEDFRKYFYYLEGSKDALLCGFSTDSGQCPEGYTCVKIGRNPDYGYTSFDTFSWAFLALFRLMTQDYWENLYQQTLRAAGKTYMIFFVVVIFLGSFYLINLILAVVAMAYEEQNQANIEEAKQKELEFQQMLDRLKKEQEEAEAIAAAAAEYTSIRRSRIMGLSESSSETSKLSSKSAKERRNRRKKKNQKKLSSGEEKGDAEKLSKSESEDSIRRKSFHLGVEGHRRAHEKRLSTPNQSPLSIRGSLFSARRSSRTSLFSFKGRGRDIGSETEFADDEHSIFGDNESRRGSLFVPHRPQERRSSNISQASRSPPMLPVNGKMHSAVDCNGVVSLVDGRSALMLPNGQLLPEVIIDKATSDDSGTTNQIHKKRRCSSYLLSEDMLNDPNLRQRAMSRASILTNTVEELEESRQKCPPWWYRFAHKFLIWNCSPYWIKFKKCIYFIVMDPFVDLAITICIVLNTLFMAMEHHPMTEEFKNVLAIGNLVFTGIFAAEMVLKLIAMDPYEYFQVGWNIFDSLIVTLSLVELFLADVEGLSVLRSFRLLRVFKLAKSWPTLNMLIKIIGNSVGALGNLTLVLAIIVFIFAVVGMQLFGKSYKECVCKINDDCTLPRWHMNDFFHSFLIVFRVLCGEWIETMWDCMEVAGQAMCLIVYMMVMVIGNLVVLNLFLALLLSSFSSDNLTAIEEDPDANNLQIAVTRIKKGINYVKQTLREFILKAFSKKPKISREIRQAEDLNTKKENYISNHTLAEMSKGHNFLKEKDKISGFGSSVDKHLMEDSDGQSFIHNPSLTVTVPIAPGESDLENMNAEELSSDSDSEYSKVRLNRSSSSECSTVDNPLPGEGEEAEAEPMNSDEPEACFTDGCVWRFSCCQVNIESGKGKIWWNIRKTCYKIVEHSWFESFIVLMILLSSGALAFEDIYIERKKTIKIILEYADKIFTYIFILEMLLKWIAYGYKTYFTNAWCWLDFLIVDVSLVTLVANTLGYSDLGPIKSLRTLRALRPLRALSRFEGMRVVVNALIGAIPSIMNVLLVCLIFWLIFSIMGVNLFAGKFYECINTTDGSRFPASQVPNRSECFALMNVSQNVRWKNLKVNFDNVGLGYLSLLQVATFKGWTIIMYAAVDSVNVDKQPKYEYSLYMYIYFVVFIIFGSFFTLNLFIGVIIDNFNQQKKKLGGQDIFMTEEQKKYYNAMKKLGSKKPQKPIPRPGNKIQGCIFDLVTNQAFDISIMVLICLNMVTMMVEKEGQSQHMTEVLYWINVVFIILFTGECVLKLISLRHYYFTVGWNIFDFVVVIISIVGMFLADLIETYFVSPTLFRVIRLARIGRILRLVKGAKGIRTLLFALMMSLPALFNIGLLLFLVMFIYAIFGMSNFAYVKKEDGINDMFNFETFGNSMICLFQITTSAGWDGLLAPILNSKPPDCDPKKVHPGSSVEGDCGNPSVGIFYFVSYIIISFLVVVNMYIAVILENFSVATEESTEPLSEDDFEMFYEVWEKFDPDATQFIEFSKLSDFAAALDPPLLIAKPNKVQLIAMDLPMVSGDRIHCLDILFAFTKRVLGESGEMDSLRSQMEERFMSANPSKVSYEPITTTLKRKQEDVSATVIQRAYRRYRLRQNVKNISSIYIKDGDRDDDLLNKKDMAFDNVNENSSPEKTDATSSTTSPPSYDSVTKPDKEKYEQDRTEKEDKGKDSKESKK
Assay type: cell-based
How it was run: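 Partially inactivated channels (20–50% inactivation at holding potential) probed by 20 ms pulses to −10 mV repeated at 0.1 Hz, in stable human Nav1.7 HEK293 cells.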
`CNC(=O)N(c1ccc(S(=O)(=O)Nc2ccon2)cn1)c1cc(Cl)c(-c2cc(F)c(F)c(OC)c2)cc1OC` [Example 1-68, 6-((2-chloro-3′,4′-difluoro-5,5′-dimethoxy-4-biphenylyl)(methylcarbamoyl)amino)-N-3-isoxazolyl-3-pyridinesulfonamide] was tested, and the IC50 was 23 nM. For `CONC(=O)N(c1ccc(S(=O)(=O)Nc2ccon2)cn1)c1cc(F)c(-c2cccc(C(F)(F)F)c2)cc1OC` [Example 1-90, 6-((2-fluoro-5-methoxy-3′-(trifluoromethyl)-4-biphenylyl)(methoxycarbamoyl)amino)-N-3-isoxazolyl-3-pyridinesulfonamide], the IC50 was 69 nM. Work on `CNC(=O)N(c1ccc(S(=O)(=O)Nc2cccnn2)cn1)c1cc(Cl)c(-c2cc(F)c(F)c(F)c2)cc1OC` [Example 2-5, 6-((2-chloro-3′,4′,5′-trifluoro-5-methoxy-4-biphenylyl)(methylcarbamoyl)amino)-N-3-pyridazinyl-3-pyridinesulfonamide] yielded an IC50 of 75 nM. `CNC(=O)N(c1ccc(S(=O)(=O)Nc2ccon2)cn1)c1cc(F)c(-c2ccc(Cl)c(C)c2)cc1OC` [Example 1-1, 6-((4′-chloro-2-fluoro-5-methoxy-3′-methyl-4-biphenylyl)(methylcarbamoyl)amino)-N-3-isoxazolyl-3-pyridinesulfonamide] gave an IC50 of 57 nM. Work on `CNC(=O)N(c1ccc(S(=O)(=O)Nc2ncccn2)cn1)c1cc(Cl)c(-c2cc(Cl)cc(C#N)c2)cc1OC` [Example 1-78, 6-((2,3′-dichloro-5′-cyano-5-methoxy-4-biphenylyl)(methylcarbamoyl)amino)-N-2-pyrimidinyl-3-pyridinesulfonamide] yielded an IC50 of 123 nM. In the case of `CNC(=O)N(c1ccc(S(=O)(=O)Nc2ccon2)cn1)c1cc(Cl)c(-c2ccc(Cl)cc2)cc1OC` [Example 1-70, 6-((2,4′-dichloro-5-methoxy-4-biphenylyl)(methylcarbamoyl)amino)-N-3-isoxazolyl-3-pyridinesulfonamide], the IC50 is reported as 52 nM. With `CNC(=O)N(c1ccc(S(=O)(=O)Nc2ncco2)cn1)c1cc(F)c(-c2ccc(F)c(OC(F)(F)F)c2)cc1OC` [Example 3-14, 6-((2,4′-difluoro-5-methoxy-3′-(trifluoromethoxy)-4-biphenylyl)(methylcarbamoyl)amino)-N-1,3-oxazol-2-yl-3-pyridinesulfonamide] the IC50 was 17 nM. With `CNC(=O)N(c1ccc(S(=O)(=O)Nc2ncccn2)cn1)c1ccc(-c2ccc(F)c(C(F)(F)F)c2)cc1OC` [Example 2-8, 6-((4′-fluoro-3-methoxy-3′-(trifluoromethyl)-4-biphenylyl)(methylcarbamoyl)amino)-N-2-pyrimidinyl-3-pyridinesulfonamide] the IC50 was 17 nM. `CNC(=O)N(c1ccc(S(=O)(=O)Nc2ccon2)cn1)c1cc(F)c(-c2cc(Cl)c(F)c(OC)c2)cc1OC` [Example 1-25, 6-((3′-chloro-2,4′-difluoro-5,5′-dimethoxy-4-biphenylyl)(methylcarbamoyl)amino)-N-3-isoxazolyl-3-pyridinesulfonamide] showed an IC50 of 16 nM. `CNC(=O)N(c1ccc(S(=O)(=O)Nc2ncccn2)cn1)c1cc(Cl)c(-c2ccc(F)c(OC(F)(F)F)c2)cc1OC` [Example 2-10, 6-((2-chloro-4′-fluoro-5-methoxy-3′-(trifluoromethoxy)-4-biphenylyl)(methylcarbamoyl)amino)-N-2-pyrimidinyl-3-pyridinesulfonamide] showed an IC50 of 8 nM.
